Laboratory results as given in paper PMC11992225, “Antibacterial compounds against non-growing and intracellular bacteria” (npj Antimicrobials and Resistance, 2025).
Several values for one entry are separate records, joined by “and”; a condition that tells them apart may be missing. Identical values can stand only once.

Experiments:
[1] = test system: intracellular S. flexneri 5a M90T in TC7 cells; assay: microbe, parasite or virus in culture; format: cell-based, Shigella flexneri
[2] = test system: non-growing P. aeruginosa DSM1117; assay: Dose-dependent killing analysis (CFU spot-plating) of stationary-phase P. aeruginosa; format: cell-based, Pseudomonas aeruginosa; settings: P. aeruginosa; for log10(CFU/ml) of treated nongrowing bacteria (single replicates): before treatment 8.887
How it was run: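 Stationary-phase P. aeruginosa DSM1117 treated for 24 h in 1:4 CA-MHB, pH 7.4, across compound doses. Survivors counted after 10-fold PBS dilution, spot-plating on LB agar and overnight growth at 37 °C; three biological replicates.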

[3] = test system: non-growing UPEC CFT073; assay: Dose-dependent killing analysis (CFU spot-plating) of stationary-phase UPEC; format: cell-based, Escherichia coli
How it was run: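 Non-growing (stationary-phase) UPEC CFT073 treated with compounds in 96-well format at 200 μl, then 10-fold serially diluted in PBS and 10 μl spots plated on LB agar. Plates incubated overnight at 37 °C; colonies counted at lowest resolvable dilution to give CFU. Three biological replicates.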

[4] = test system: non-growing S. aureus DSM2569; assay: Dose-dependent killing analysis (CFU spot-plating) of stationary-phase S. aureus; format: cell-based, Staphylococcus aureus; settings: S. aureus; for log10(CFU/ml) of treated nongrowing bacteria (single replicates): before treatment 9,097
How it was run: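 Stationary-phase S. aureus DSM2569 was grown and treated for 24 h in 1:4 CA-MHB at pH 7.4. Treated samples were serially diluted 10-fold in PBS and spot-plated on LB agar, which was incubated overnight at 37 °C. Survivors were counted as CFU over three biological replicates.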

NC1CCN(c2nc3c(cc2F)c(=O)c(C(=O)O)cn3-c2ccc(F)cc2F)C1 (centres unmarked) [Tosufloxacin]
IC50 ([1]; Shigella flexneri, TC7, 14 h): 25 nM
Fluorescence intensity (RFU), Mean, 2 x MIC ([1]; TC7 cells infected with GFP-expressing S. flexneri, 14 h treatment, 2 x MIC): 4963.31 RFU
Fluorescence intensity (RFU), Mean, 4 x MIC ([1]; TC7 cells infected with GFP-expressing S. flexneri, 14 h treatment, 4 x MIC): 3475.06 RFU
Fluorescence intensity (RFU), Mean, 8 x MIC ([1]; TC7 cells infected with GFP-expressing S. flexneri, 14 h treatment, 8 x MIC): 3341.83 RFU
Fluorescence intensity (RFU), Mean, 16 x MIC ([1]; TC7 cells infected with GFP-expressing S. flexneri, 14 h treatment, 16 x MIC): 2905.56 RFU
Fluorescence intensity (RFU), Mean, 32 x MIC ([1]; TC7 cells infected with GFP-expressing S. flexneri, 14 h treatment, 32 x MIC): 2463.67 RFU
Fluorescence intensity (RFU), Mean, MIC ([1]; TC7 cells infected with GFP-expressing S. flexneri, 14 h treatment, MIC): 6769 RFU
killing, average Δlog10(CFU/ml) ([2]; drug concentration 0.1): 0.209 log10(CFU/ml)
log10(CFU/ml) of treated nongrowing bacteria (single replicates) ([2]; drug concentration 0.1): 8.477 log10(CFU/ml) and 8.954 log10(CFU/ml) and 8.602 log10(CFU/ml)
killing, average Δlog10(CFU/ml) ([2]; drug concentration 0.5): 1.194 log10(CFU/ml)
log10(CFU/ml) of treated nongrowing bacteria (single replicates) ([2]; drug concentration 0.5): 7.477 log10(CFU/ml) and 7.903 log10(CFU/ml) and 7.699 log10(CFU/ml)
killing, average Δlog10(CFU/ml) ([2]; drug concentration 2.5): 3.719 log10(CFU/ml)
log10(CFU/ml) of treated nongrowing bacteria (single replicates) ([2]; drug concentration 2.5): 5.602 log10(CFU/ml) (2×) and 4.301 log10(CFU/ml)
killing, average Δlog10(CFU/ml) ([2]; drug concentration 10): 4.787 log10(CFU/ml)
log10(CFU/ml) of treated nongrowing bacteria (single replicates) ([2]; drug concentration 10): =<4 log10(CFU/ml) (2×) and 4.301 log10(CFU/ml)
killing, average Δlog10(CFU/ml) ([3]; E. coli in 1:4 CA-MHB (pH 7.4), drug concentration 0.25): 0.576 log10(CFU/ml)
log10(CFU/ml) of treated nongrowing bacteria (single replicates) ([3]; E. coli in 1:4 CA-MHB (pH 7.4), drug concentration 0.25, before treatment 8.977): 8.477 log10(CFU/ml) and 8.279 log10(CFU/ml) and 8.447 log10(CFU/ml)
killing, average Δlog10(CFU/ml) ([3]; E. coli in 1:4 CA-MHB (pH 7.4), drug concentration 0.5): 0.736 log10(CFU/ml)
log10(CFU/ml) of treated nongrowing bacteria (single replicates) ([3]; E. coli in 1:4 CA-MHB (pH 7.4), drug concentration 0.5, before treatment 8.977): 8.602 log10(CFU/ml) and 8.041 log10(CFU/ml) and 8.079 log10(CFU/ml)
killing, average Δlog10(CFU/ml) ([3]; E. coli in 1:4 CA-MHB (pH 7.4), drug concentration 1): 1.185 log10(CFU/ml)
log10(CFU/ml) of treated nongrowing bacteria (single replicates) ([3]; E. coli in 1:4 CA-MHB (pH 7.4), drug concentration 1, before treatment 8.977): 8.301 log10(CFU/ml) and 7.845 log10(CFU/ml) and 7.230 log10(CFU/ml)
killing, average Δlog10(CFU/ml) ([3]; E. coli in 1:4 CA-MHB (pH 7.4), drug concentration 2.5): 2.064 log10(CFU/ml)
log10(CFU/ml) of treated nongrowing bacteria (single replicates) ([3]; E. coli in 1:4 CA-MHB (pH 7.4), drug concentration 2.5, before treatment 8.977): 7.041 log10(CFU/ml) and 6.699 log10(CFU/ml) and 7.000 log10(CFU/ml)
killing, average Δlog10(CFU/ml) ([3]; E. coli in 1:4 CA-MHB (pH 7.4), drug concentration 5): 2.460 log10(CFU/ml)
log10(CFU/ml) of treated nongrowing bacteria (single replicates) ([3]; E. coli in 1:4 CA-MHB (pH 7.4), drug concentration 5, before treatment 8.977): 6.845 log10(CFU/ml) and 6.230 log10(CFU/ml) and 6.477 log10(CFU/ml)
killing, average Δlog10(CFU/ml) ([3]; E. coli in 1:4 CA-MHB (pH 7.4), drug concentration 10): 2.856 log10(CFU/ml)
log10(CFU/ml) of treated nongrowing bacteria (single replicates) ([3]; E. coli in 1:4 CA-MHB (pH 7.4), drug concentration 10, before treatment 8.977): 6.778 log10(CFU/ml) and 5.380 log10(CFU/ml) and 6.204 log10(CFU/ml)
killing, average Δlog10(CFU/ml) ([3]; E. coli in LPM (pH 5.5), drug concentration 0.25): -0.097 log10(CFU/ml)
log10(CFU/ml) of treated nongrowing bacteria (single replicates) ([3]; E. coli in LPM (pH 5.5), drug concentration 0.25, before treatment 7.350): 7.342 log10(CFU/ml) and 7.000 log10(CFU/ml) and 8.000 log10(CFU/ml)
killing, average Δlog10(CFU/ml) ([3]; E. coli in LPM (pH 5.5), drug concentration 0.5): 0.356 log10(CFU/ml)
log10(CFU/ml) of treated nongrowing bacteria (single replicates) ([3]; E. coli in LPM (pH 5.5), drug concentration 0.5, before treatment 7.350): 7.079 log10(CFU/ml) and 6.000 log10(CFU/ml) and 7.903 log10(CFU/ml)
killing, average Δlog10(CFU/ml) ([3]; E. coli in LPM (pH 5.5), drug concentration 1): 0.195 log10(CFU/ml)
log10(CFU/ml) of treated nongrowing bacteria (single replicates) ([3]; E. coli in LPM (pH 5.5), drug concentration 1, before treatment 7.350): 7.279 log10(CFU/ml) and 6.342 log10(CFU/ml) and 7.845 log10(CFU/ml)
killing, average Δlog10(CFU/ml) ([3]; E. coli in LPM (pH 5.5), drug concentration 2.5): 0.183 log10(CFU/ml)
log10(CFU/ml) of treated nongrowing bacteria (single replicates) ([3]; E. coli in LPM (pH 5.5), drug concentration 2.5, before treatment 7.350): 7.079 log10(CFU/ml) and 6.519 log10(CFU/ml) and 7.903 log10(CFU/ml)
killing, average Δlog10(CFU/ml) ([3]; E. coli in LPM (pH 5.5), drug concentration 5): 0.243 log10(CFU/ml)
log10(CFU/ml) of treated nongrowing bacteria (single replicates) ([3]; E. coli in LPM (pH 5.5), drug concentration 5, before treatment 7.350): 7.146 log10(CFU/ml) and 6.699 log10(CFU/ml) and 7.477 log10(CFU/ml)
killing, average Δlog10(CFU/ml) ([3]; E. coli in LPM (pH 5.5), drug concentration 10): 0.735 log10(CFU/ml)
log10(CFU/ml) of treated nongrowing bacteria (single replicates) ([3]; E. coli in LPM (pH 5.5), drug concentration 10, before treatment 7.350): 6.591 log10(CFU/ml) and 6.255 log10(CFU/ml) and 7.000 log10(CFU/ml)
killing, average Δlog10(CFU/ml) ([4]; drug concentration 0.1): 0.037 log10(CFU/ml)
log10(CFU/ml) of treated nongrowing bacteria (single replicates) ([4]; drug concentration 0.1): 8.845 log10(CFU/ml) and 9.301 log10(CFU/ml) and 9.033 log10(CFU/ml)
killing, average Δlog10(CFU/ml) ([4]; drug concentration 0.5): 0.330 log10(CFU/ml)
log10(CFU/ml) of treated nongrowing bacteria (single replicates) ([4]; drug concentration 0.5): 8.690 log10(CFU/ml) and 8.869 log10(CFU/ml) and 8.740 log10(CFU/ml)
killing, average Δlog10(CFU/ml) ([4]; drug concentration 2.5): 0.522 log10(CFU/ml)
log10(CFU/ml) of treated nongrowing bacteria (single replicates) ([4]; drug concentration 2.5): 8.580 log10(CFU/ml) and 8.898 log10(CFU/ml) and 8.248 log10(CFU/ml)
killing, average Δlog10(CFU/ml) ([4]; drug concentration 10): 0.688 log10(CFU/ml)
log10(CFU/ml) of treated nongrowing bacteria (single replicates) ([4]; drug concentration 10): 8.531 log10(CFU/ml) and 8.663 log10(CFU/ml) and 8.033 log10(CFU/ml)
